# Where no end group is shown, it is not given here.
# Legend:
# [1] = tested on: MUC1 antigen-specific T cells; assay: ELISPOT of MUC1 antigen-specific T cells in spleens of vaccinated HLA-A2 transgenic mice; assay type: in vivo, HLA-A2 expressing transgenic mice (AAD mice); settings: for antigen strength (immune response): lipidated peptide in the micellar peptide antigen component of the R-DOTAP vaccine; for antigen delivery to dendritic cells and immune cell activation: FIGS. 4 and 5, anionic SSEEDE N-terminal extension, formulated with R-DOTAP nanoparticles and micellar mixture of six lipidated peptides
# Method: As illustrated in FIG. 4 HLA-A2 specific CD8 T cell responses to formulations including peptide antigen SSEEDE-C1A (SEQ ID NO:18) and SSEEDE-C2A (SEQ ID NO:19) formulated with R-DOTAP nanoparticles and a micellar mixture with six lipidated peptide agonist antigens, pC3A: (SEQ ID NO:15), pV1A: (SEQ ID NO:2), pV2A: (SEQ ID NO:3), pC5A: (SEQ ID NO:4), pC6A: (SEQ ID NO:5), pP93L: (SEQ ID NO: 16) were evaluated. […] The efficacy of these vaccine formulations in generating T cell responses was measured by dosing HLA-A2 expressing transgenic mice (AAD mice) with two 0.1 ml injections of the vaccine delivered subcutaneously on day 0 and day 7. Negative control groups mice were vaccinated with MUC1 peptides formulated in sucrose buffer. Immune responses specific to vaccine formulation were measured in an ELISPOT assay by enumerating MUC1 antigen-specific T cells, in triplicate wells, in the spleens obtained from vaccinated mice. Each bar in the graph represents the mean SFU per 250,000 splenocytes for a group of vaccinated mice. Error bars represent mean±SEM for five mice in each group. For identifying MUC1-specific T cells, splenocytes were stimulated with peptide sequences C1A (SEQ ID NO:9: YLAIVYLIAL), C2A (SEQ ID NO:10), V1A (SEQ ID NO:13), V2A (SEQ ID NO:14:) C3A (SEQ ID NO:12) and p93L (SEQ ID NO:11)
# As shown in FIG. 5 HLA-A2 specific CD8 T cell responses to formulations including peptide antigen SSEEDE-C1A (SEQ ID NO:9) and SSEEDE-C2A ([…]) formulated with R-DOTAP nanoparticles and a micellar mixture with six lipidated peptide agonist antigens, pC3A: (SEQ ID NO:15), pV1A: (SEQ ID NO:2), pV2A: (SEQ ID NO:3), pC5A: (SEQ ID NO:4), pC6A: (SEQ ID NO:5), pP93L: (SEQ ID NO:16) were assessed. […] The efficacy of these vaccine formulations in generating T cell responses was measured by dosing HLA-A2 expressing transgenic mice (AAD mice) with two 0.1 ml injections of the vaccine delivered subcutaneously on day 0 and day 7. Negative control groups mice were vaccinated with MUC1 peptides formulated in sucrose buffer. Immune responses specific to vaccine formulation were measured in an ELISPOT assay by enumerating MUC1 antigen-specific T cells, in triplicate wells, in the spleens obtained from vaccinated mice. Each bar in the graph represents the mean SFU per 250,000 splenocytes for a group of vaccinated mice. Error bars represent mean±SEM for five mice in each group. For identifying MUC1-specific T cells, splenocytes were stimulated with peptide sequences C1A (SEQ ID NO:9: YLAIVYLIAL), C2A (SEQ ID NO:10), V1A (SEQ ID NO:13), V2A (SEQ ID NO:14) C3A (SEQ ID NO:12) and p93L (SEQ ID NO:11).
# Control peptide antigen formulations were prepared with 0.5 ml of Montanide plus CpG, or “NCI adjuvant” formulation consisting of 50 μg/ml GM-CSF, 20 μg/ml IL-12, 0.8 mg/ml HBV core (128-140) peptide in incomplete Freund's adjuvant. The efficacy of these vaccine formulations in generating T cell responses was measured by dosing HLA-A2 expressing transgenic mice (AAD mice) with two 0.1 ml injections of the vaccine delivered subcutaneously on day 0 and day 7. Control group mice were vaccinated with MUC1 peptides formulated in sucrose buffer alone. Immune responses specific to vaccine formulation were measured in an ELISPOT assay by enumerating MUC1 antigen-specific T cells, in triplicate wells, in the spleens obtained from vaccinated mice. Each data point in the graph represents the mean SFU per 250,000 splenocytes in vaccinated mice. Error bars represent mean±SEM for five mice in each group. For identifying MUC1-specific T cells, splenocytes were stimulated with peptide sequences C1A (SEQ ID NO:9: YLAIVYLIAL).
# Control peptide antigen formulations were prepared with 0.5 ml of Montanide plus CpG, or “NCI adjuvant” formulation consisting of 50 μg/ml GM-CSF, 20 μg/ml IL-12, 0.8 mg/ml HBV core (128-140) peptide in incomplete Freund's adjuvant. […]
# HLA-A2, A3, A11 and A24 = assay: MHC-binding specificity of MUC1 peptide antigens (HLA binding / HLA affinity); set-up: species or system human; settings: agonist sequence; HLA allele the peptide binds; listed as VIA
# Description: Within the human mucin 1 oncoprotein multiple high affinity MHC-binding peptide antigens specific for HLA-A2, A3, A11 and A24 have been identified (Table 1). MHC-binding peptide antigens specific for HLA-A2 have been identified: YLAIVYLIAL (SEQ ID NO:9, C1A), YLIALAVCQV (SEQ ID NO:10, C2A), YLAPPAHGV (SEQ ID NO:13, VIA) and YLDTRPAPV (SEQ ID NO:14, V2A).
# [2] = Aqueous solubility of peptide antigens; settings: unmodified hydrophobic agonist peptides
# [3] = FIG. 8, long peptide mixed with R-DOTAP
substance,measurement,setting,value
"KSS-YLAPPAHGV (not fully specified; lipidated; SITE 1 Epsilon-palmitoyl modified residue) [pV1A, lipidated MUC1 agonist peptide]",antigen strength (immune response),[1]; FIGS. 3 and 7,strong antigens
"KSS-YLDTRPAPV (not fully specified; lipidated; SITE 1 Epsilon-palmitoyl modified residue) [pV2A, lipidated MUC1 agonist peptide]",antigen strength (immune response),[1]; FIGS. 3 and 7,strong antigens
"SSEEDE-YLAIVYLIAL (SSEEDEYLAIVYLIAL) [SSEEDE-C1A, C1A with cleavable anionic N-terminal extension SSEEDE]",antigen delivery to dendritic cells and immune cell activation,[1],effective delivery
"SSEEDE-YLIALAVCQV (SSEEDEYLIALAVCQV) [SSEEDE-C2A, C2A with cleavable anionic N-terminal extension SSEEDE]",antigen delivery to dendritic cells and immune cell activation,[1],effective delivery
YLAIVYLIAL [C1A],C1A-specific T cell response (immunoactivity),"[1]; FIG. 1, peptide inserted into lipid bilayer of R-DOTAP nanoparticle, two 0.1 ml s.c. injections day 0 and 7, splenocytes stimulated with C1A",effective immunoactivity
same,immune response,"[1]; FIG. 8, short peptides encapsulated (incorporated into the R-DOTAP bilayer)",did generate a significant response
same,immune response,"[1]; FIG. 8, short peptides mixed with R-DOTAP",did not generate a significant response
same,immune response (HLA-A2 specific CD8 T cell),"[1]; FIGS. 3 and 7, peptides inserted into R-DOTAP nanoparticle lipid bilayer, with micellar lipidated V1A/V2A, 3 mg R-DOTAP per ml",strong immune responses
same,generation of immune responses,[1]; peptide included in antigen mixtures mixed/formulated with R-DOTAP nanoparticles (not inserted in bilayer),ordinarily inactive
YLAIVYLIALAVCQVRRKNYGQLDIFPARDKYHPMSEYAL [YL40],antigen specific responses to antigens C1A and C2A,"[1]; FIG. 6, long peptide with lipidated peptide micelles and 3 mg R-DOTAP in 1 ml",strong antigen specific responses
same,C1A response (activity),[1]; [3],induces a significant C1A response
same,C1A specific T-cell responses,"[1]; FIGS. 6 and 7, long peptide delivered with R-DOTAP nanoparticles",high level detection
"YLAPPAHGV (not fully specified) [V1A, MUC1 agonist peptide antigen]",HLA Binding,"HLA-A2, A3, A11 and A24",HLA-A2
same,antigen strength (immune response),[1]; FIGS. 3 and 7,strong antigens
"YLDTRPAPV (not fully specified) [V2A, MUC1 agonist peptide antigen]",antigen strength (immune response),[1]; FIGS. 3 and 7,strong antigens
"YLIALAVCQV [C2A, YLIALAVCQV]",aqueous solubility,[2],limited aqueous solubility
YLIALAVCQVRRKNYGQLDIFPARDKYHPMSEYAL- [YL35],C2A response,[1]; [3],did not generate a significant C2A response
